Values joined by “and” are separate entries in the source; they are usually repeats but may differ in a detail not shown here. Identical values can stand only once. Inconclusive results and toxic doses are left out. The calls were made as follows: active = survival T/C of 150% or more; inactive = T/C below 125% in these data.
Test system: BDF1 mice, P388 leukemia ip, median survival T/C
Experiment: NCI In Vivo Anticancer Drug Screen. Data for tumor model P388 Leukemia (intraperitoneal) in B6D2F1 (BDF1) mice
Details: endpoint: median survival time, higher = longer survival
How it was run: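 In tumour-bearing mice, survival after compound treatment is set against the vehicle group and given as a quotient.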

[1] = dose: 12.5 mg/kg/injection, schedule: Q01DX009 (ip), vehicle: Klucel (hydroxypropylcellulose) (HPC)
[2] = dose: 100.0 mg/kg/injection, schedule: Q01DX009 (ip), vehicle: saline with Tween-80
[3] = dose: 100.0 mg/kg/injection, schedule: Q04DX003 (ip), vehicle: saline with Tween-80
[4] = dose: 200.0 mg/kg/injection, schedule: Q01DX009 (ip), vehicle: saline with Tween-80
[5] = dose: 200.0 mg/kg/injection, schedule: Q04DX003 (ip), vehicle: saline with Tween-80
[6] = dose: 400.0 mg/kg/injection, schedule: Q04DX003 (ip), vehicle: saline with Tween-80
[7] = dose: 100.0 mg/kg/injection, schedule: Q04DX003 (ip), vehicle: Klucel (hydroxypropylcellulose) (HPC)
[8] = dose: 200.0 mg/kg/injection, schedule: Q04DX003 (ip), vehicle: Klucel (hydroxypropylcellulose) (HPC)
[9] = dose: 400.0 mg/kg/injection, schedule: Q04DX003 (ip), vehicle: Klucel (hydroxypropylcellulose) (HPC)

Measured: T/C

CC1CCC(NC(=O)N(CCCl)N=O)CC1 (configuration not stated)
active: dose: 1.5 mg/kg/injection, schedule: Q01DX009 (ip), vehicle: Klucel (hydroxypropylcellulose) (HPC) 177 % of control | dose: 3.1 mg/kg/injection, schedule: Q04DX003 (ip), vehicle: Klucel (hydroxypropylcellulose) (HPC) 154 % of control | dose: 3.6 mg/kg/injection, schedule: Q01DX009 (ip), vehicle: Klucel (hydroxypropylcellulose) (HPC) 180 % of control | dose: 4.7 mg/kg/injection, schedule: Q04DX003 (ip), vehicle: Klucel (hydroxypropylcellulose) (HPC) 172 % of control | dose: 5.0 mg/kg/injection, schedule: Q04DX002 (ip), vehicle: other 168 % of control | dose: 7.2 mg/kg/injection, schedule: Q04DX003 (ip), vehicle: saline 190 % of control | dose: 8.3 mg/kg/injection, schedule: Q01DX009 (ip), vehicle: Klucel (hydroxypropylcellulose) (HPC) 250 % of control | dose: 10.0 mg/kg/injection, schedule: Q04DX002 (ip), vehicle: other 194 % of control | dose: 10.0 mg/kg/injection, schedule: Q04DX003 (ip), vehicle: saline with Tween-80 209 % of control | dose: 10.0 mg/kg/injection, schedule: Q04DX003 (ip), vehicle: saline 225 % of control | dose: 11.0 mg/kg/injection, schedule: Q04DX003 (ip), vehicle: saline with Tween-80 272 % of control | dose: 15.0 mg/kg/injection, schedule: Q04DX003 (ip), vehicle: saline with Tween-80 241 % of control and 322 % of control and 212 % of control | dose: 16.0 mg/kg/injection, schedule: Q01DX001 (ip), vehicle: saline with Tween-80 322 % of control | dose: 16.0 mg/kg/injection, schedule: Q04DX003 (ip), vehicle: saline with Tween-80 545 % of control | dose: 16.5 mg/kg/injection, schedule: Q04DX003 (ip), vehicle: saline 272 % of control | dose: 20.0 mg/kg/injection, schedule: Q04DX002 (ip), vehicle: other 247 % of control | dose: 20.0 mg/kg/injection, schedule: Q04DX003 (ip), vehicle: saline with Tween-80 258 % of control and 294 % of control and 482 % of control | dose: 24.0 mg/kg/injection, schedule: Q04DX003 (ip), vehicle: saline with Tween-80 545 % of control | dose: 25.0 mg/kg/injection, schedule: Q04DX003 (ip), vehicle: alcohol 300 % of control | dose: 25.0 mg/kg/injection, schedule: Q04DX003 (ip), vehicle: saline 240 % of control and 272 % of control | dose: 30.0 mg/kg/injection, schedule: Q04DX003 (ip), vehicle: saline with Tween-80 446 % of control | dose: 54.0 mg/kg/injection, schedule: Q01DX001 (ip), vehicle: saline with Tween-80 499 % of control
inactive: dose: 0.66 mg/kg/injection, schedule: Q01DX009 (ip), vehicle: Klucel (hydroxypropylcellulose) (HPC) 97 % of control | dose: 0.99 mg/kg/injection, schedule: Q01DX009 (ip), vehicle: Klucel (hydroxypropylcellulose) (HPC) 107 % of control | dose: 9.4 mg/kg/injection, schedule: Q04DX003 (ip), vehicle: saline with Tween-80 113 % of control | dose: 10.0 mg/kg/injection, schedule: Q01DX001 (ip), vehicle: alcohol 119 % of control | dose: 18.0 mg/kg/injection, schedule: Q01DX009 (ip), vehicle: Klucel (hydroxypropylcellulose) (HPC) 110 % of control | dose: 18.75 mg/kg/injection, schedule: Q01DX009 (ip), vehicle: Klucel (hydroxypropylcellulose) (HPC) 100 % of control | dose: 25.0 mg/kg/injection, schedule: Q01DX009 (ip), vehicle: Klucel (hydroxypropylcellulose) (HPC) 115 % of control | dose: 40.0 mg/kg/injection, schedule: Q04DX002 (ip), vehicle: other 117 % of control | dose: 50.0 mg/kg/injection, schedule: Q04DX003 (ip), vehicle: alcohol 115 % of control
300 % of control and 120 % of control: [1]
90 % of control and 218 % of control: dose: 37.5 mg/kg/injection, schedule: Q04DX003 (ip), vehicle: saline

O=C(c1ccco1)C1Cc2ccccc2C1=O (configuration not stated)
inactive: [2] 116 % of control | [3] 91 % of control | [4] 104 % of control | [5] 104 % of control | dose: 400.0 mg/kg/injection, schedule: Q01DX009 (ip), vehicle: saline with Tween-80 100 % of control | [6] 108 % of control

CC1=C(O)C(=O)C(C2=C(O)C(=O)C(C)=C(O)C2=O)=C(O)C1=O
inactive: dose: 0.63 mg/kg/injection, schedule: Q01DX010 (ip), vehicle: saline 100 % of control | dose: 1.25 mg/kg/injection, schedule: Q01DX010 (ip), vehicle: saline 100 % of control | dose: 62.5 micrograms/kg/injection, schedule: Q01DX001 (ip), vehicle: saline 118 % of control | dose: 125.0 micrograms/kg/injection, schedule: Q01DX001 (ip), vehicle: saline 90 % of control | dose: 250.0 micrograms/kg/injection, schedule: Q01DX001 (ip), vehicle: saline 100 % of control | dose: 500.0 micrograms/kg/injection, schedule: Q01DX001 (ip), vehicle: saline 100 % of control | dose: 1000.0 micrograms/kg/injection, schedule: Q01DX001 (ip), vehicle: saline 100 % of control

CC1(C)C(=O)N(Cl)C(=O)N1Cl
active: dose: 25.0 mg/kg/injection, schedule: Q01DX009 (ip), vehicle: saline with Tween-80 263 % of control
inactive: dose: 6.25 mg/kg/injection, schedule: Q01DX009 (ip), vehicle: saline with Tween-80 109 % of control | dose: 12.5 mg/kg/injection, schedule: Q01DX009 (ip), vehicle: saline with Tween-80 113 % of control

Cc1ccc(S(=O)(=O)N/N=C/C(=O)O)cc1
inactive: dose: 6.25 mg/kg/injection, schedule: Q01DX009 (ip), vehicle: Klucel (hydroxypropylcellulose) (HPC) 113 % of control and 111 % of control | dose: 6.25 mg/kg/injection, schedule: Q01DX009 (ip), vehicle: other 112 % of control | [1] 124 % of control | dose: 100.0 mg/kg/injection, schedule: Q01DX009 (ip), vehicle: Klucel (hydroxypropylcellulose) (HPC) 90 % of control and 101 % of control | dose: 400.0 mg/kg/injection, schedule: Q01DX009 (ip), vehicle: Klucel (hydroxypropylcellulose) (HPC) 114 % of control
active: dose: 50.0 mg/kg/injection, schedule: Q01DX009 (ip), vehicle: Klucel (hydroxypropylcellulose) (HPC) 191 % of control and 169 % of control and 185 % of control

COC(OC)c1nc(N)[nH]c(=O)c1Cc1ccc(C)c2ccccc12
inactive: [2] 96 % of control | [3] 109 % of control | [4] 88 % of control | [5] 100 % of control | [6] 100 % of control

COc1ccc(NC(=O)Oc2cc(C)cc(C)c2)cc1
inactive: [7] 100 % of control | [8] 95 % of control | [9] 100 % of control

C/C=C1/C(=O)O[C@]23C=C[C@@H]4C(C(=O)OC)=CO[C@H](O[C@@H]12)[C@@H]43
inactive: dose: 0.27 mg/kg/injection, schedule: Q01DX009 (ip), vehicle: saline 110 % of control | dose: 0.55 mg/kg/injection, schedule: Q01DX009 (ip), vehicle: saline 110 % of control | dose: 1.1 mg/kg/injection, schedule: Q01DX009 (ip), vehicle: saline 110 % of control | dose: 2.2 mg/kg/injection, schedule: Q01DX009 (ip), vehicle: saline 110 % of control | dose: 165.0 micrograms/kg/injection, schedule: Q01DX009 (ip), vehicle: Klucel (hydroxypropylcellulose) (HPC) 115 % of control | dose: 310.0 micrograms/kg/injection, schedule: Q01DX009 (ip), vehicle: Klucel (hydroxypropylcellulose) (HPC) 115 % of control | dose: 1250.0 micrograms/kg/injection, schedule: Q01DX009 (ip), vehicle: Klucel (hydroxypropylcellulose) (HPC) 115 % of control

COC(=O)CCCNC1CCCCC1
inactive: dose: 50.0 mg/kg/injection, schedule: Q01DX001 (ip), vehicle: saline 107 % of control | dose: 100.0 mg/kg/injection, schedule: Q01DX001 (ip), vehicle: saline 114 % of control | dose: 200.0 mg/kg/injection, schedule: Q01DX001 (ip), vehicle: saline 102 % of control

CC(Br)CNC(=O)c1ccc([N+](=O)[O-])cc1 (configuration not stated)
inactive: dose: 25.0 mg/kg/injection, schedule: Q04DX003 (ip), vehicle: Klucel (hydroxypropylcellulose) (HPC) 109 % of control | dose: 50.0 mg/kg/injection, schedule: Q04DX003 (ip), vehicle: Klucel (hydroxypropylcellulose) (HPC) 109 % of control | [7] 100 % of control

OC(CC(O)(C(F)(F)F)C(F)(F)F)c1ccccc1 (configuration not stated)
inactive: [3] 100 % of control | [5] 118 % of control | [6] 113 % of control

CCCCCCCC(O)CCCC (configuration not stated)
inactive: [7] 87 % of control | [8] 91 % of control | [9] 91 % of control

Source: PubChem BioAssay AID328 (DTP/NCI, 2004)
